Laboratory results taken from patent US20110165652A1, “COMPOSITIONS, METHODS AND SYSTEMS FOR SINGLE MOLECULE SEQUENCING” (LIFE TECHNOLOGIES CORPORATION, priority 2008, published 2011).

Columns and labels:
[1] = Initial tests of reaction rate of alpha-phosphate modified dGTP; assay type: biochemical; conditions: data not shown
dATP-1-ROX = experiment: Primer extension by various polymerases with dATP-1-ROX or natural dATP; assay type: biochemical; conditions: dATP-1-ROX vs natural dATP, optimal temperature of each polymerase
Experimental: FIG. 6 depicts the results of experiments to assess the nucleotide incorporation efficiency of various DNA mutated and non-mutated polymerases (Sequenase; Thermo-Sequenase; wild-type Taq from Promega; HIV reverse transcriptase; and a mutant Taq polymerase comprising the mutation F647C) using both natural (unlabeled) dATP as well as the gamma-modified nucleotide dATP-1-Rox. Each reaction was conducted at the individual polymerase's optimal temperature with equimolar concentrations of enzymatically cleared gamma-labeled nucleotides and units of polymerase. […] Primer extension reactions were performed in the presence of the nucleotide dATP-1-ROX or natural dATP. The ‘Neg Control’ is a control lacking both polymerase and nucleotide. The extension products were size separated using denaturing gel electrophoresis, and visualized on a Bio-Rad fx Imager. Incorporation of the gamma-labeled nucleotide results in the production of a resolvable extension duplex that indicates incorporation of a single dATP. The non-extended primer is the lower band; extension products are more slowly migrating. […] FIG. 81 is a solid ribbon diagram generated in DS Viewer Pro of Taq DNA Polymerase.

Row | Molecule | reduction of reaction rate as compared to the natural counterpart [1] [fold] | incorporation of gamma-labeled nucleotide (dATP-1-ROX)
1 | BP(=O)(OCC1OC(n2cnc3c(=O)[nH]c(N)nc32)CC1O)OP(=O)(O)OP(=O)(O)O (stereo not drawn) [[alpha]-P-borano-dGTP] | 1.32 | 
2 | Nc1nc2c(ncn2[C@H]2C[C@H](O)[C@@H](COP(O)(=S)OP(=O)(O)OP(=O)(O)O)O2)c(=O)[nH]1 (stereo partly drawn) [[alpha]-P-thiol-dGTP] | 1.61 | 
3 | VTaq647C: engineered mutant Taq polymerase comprising the mutation F647C, SEQ. ID: 7 (protein, listed as Thermus aquaticus) ALEEAPWPPPEGAFVGFVLSRKEPMWADLLALAAARGGRVHRAPEPYKALRDLKEARGLLAKDLSVLALREGLGLPPGDDPMLLAYLLDPSNTTPEGVARRYGGEWTEEAGERAALSERLFANLWGRLEGEERLLWLYREVERPLSAVLAHMEATGVRLDVAYLRALSLEVAEEIARLEAEVFRLAGHPFNLNSRDQLERVLFDELGLPAIGKTEKTGKRSTSAAVLEALREAHPIVEKILQYRELTKLKSTYIDPLPDLIHPRTGRLHTRFNQTATATGRLSSSDPNLQNIPVRTPLGQRIRRAFIAEEGWLLVALDYSQIELRVLAHLSGDENLIRVFQEGRDIHTETASWMCGVPREAVDPLMRRAAKTINFGVLYGMSAHRLSQELAIPYEEAQAFIERYFQSFPKVRAWIEKTLEEGRRRGYVETLFGRRRYVPDLEARVKSVREAAERMAFNMPVQGTAADLMKLAMVKLFPRLEEMGARMLLQVHDELVLEAPKERAEAVARLAKEVMEGVYPLAVPLEVEVGIGEDWLSAKE |  | significantly improved incorporation
